Test in data set [1]: not given
This is another data set of the same source.

Test in data set [2]: not given
This is another data set of the same source.

Test in data set [3]: not given
The source holds these as a separate data set.

For another data set, the target named is T1, myelin protein zero (P0) (Rattus norvegicus, UniProt P06907).
T1 construct: RT4-D12 Schwannoma cells were selected for in vitro experiments based on their origin and their specific P0-expressing properties; endogenous in cells; host or cells: RT4-D12 Schwannoma cells
T1 sequence (P06907 30-248): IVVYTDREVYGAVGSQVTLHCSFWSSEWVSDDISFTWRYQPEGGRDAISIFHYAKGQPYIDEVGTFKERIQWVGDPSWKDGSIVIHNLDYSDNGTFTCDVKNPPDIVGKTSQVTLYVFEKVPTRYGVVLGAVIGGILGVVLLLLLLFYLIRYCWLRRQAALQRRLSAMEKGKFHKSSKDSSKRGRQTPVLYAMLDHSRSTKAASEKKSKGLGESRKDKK
In words: Saturation binding by flow cytometry on P0-expressing Schwannoma cells. On the procedure: RT4-D12 Schwannoma cells were selected for in vitro experiments based on their origin and their specific P0-expressing properties.
All chemicals were received from Actu-All Chemical (Oss, The Netherlands), Sigma Aldrich (St. Louis, MO, USA), Tokyo Chemical Industry (Tokyo, Japan), Biosolve BV (Valkenswaard, The Netherlands), VWR Chemicals (Solon, OH, USA) and used without further purification. DMF and DMSO were dried over four Å molecular sieves at least for 24 h prior to use. Preparative high-pressure liquid chromatography (prep-HPLC) was performed on a Waters HPLC system (Waters Chromatography B.V., Etten-Leur, The Netherlands) using a 2545 quaternary gradient module pump and a 2489 UV detector. Dr. Maisch ReproSil-Pur 120 C18-AQ 10 μM (250 mm × 20 mm) column (Dr. Maisch HPLC GmbH, Ammerbuch-Entringen, Germany) was applied operating flow rate of 12 mL/min. HPLC analysis was carried out on Waters Alliance 2690 using a Waters symmetry C18 column (2.1 × 150 mm) with a gradient of 0.1% TFA in H2O/MeCN 95:5 to 0.1% TFA in H2O/MeCN 5:95 in 17 min (0.3 mL/min). Mass spectrometry was performed on a Microflex LT/SH MALDI-TOF mass spectrometer (Bruker, Billerica, MA, USA). Lyophilization was performed with a VaCo 2-II lyophilizer (Zirbus technology GmbH, Bad Grund (Harz), Germany). Absorption spectrometry was performed using a UV1280 UV–vis spectrometer (Shimadzu, Kyoto, Japan), and fluorescence spectrometry was performed using an LS55 (Perkin Elmer, Waltham, MA, USA). The fluorescence spectra at different temperatures were measured on an Agilent Cary Eclipse (Agilent Cary Eclipse, Santa Clara, CA, USA). NMR spectra were measured on a Bruker Avance 300 (Bruker, Billerica, MA, USA) operating at 300 MHz for 1 H and 75.00 MHz for 13 C, using the residual solvents (CDCl3 and DMSO-d6) as internal references, and on a Bruker Advance III spectrometer operating at 600 MHz for 1H and equipped with a 2.5 mm PH SEI probe (Bruker, Billerica, MA, USA). For photostability, a prototype D-Light P surgical laparoscope (KARL STORZ, Tuttlingen, Germany) was used. Fluorescence confocal imaging was performed using a SP8 WLL confocal microscope (Leica Microsystems, Wetzlar, Germany). Obtained images were analyzed using Leica Confocal Software (Leica Microsystems). Mean fluorescence intensity values per sample were measured using a LSRII flow cytometer (BD Biosciences, Franklin Lakes, NJ, USA) with APC-A settings (635 nm laser and 750 nm long-pass filter). The binding constant (KD) of the normalized geometric means were fitted with equations in the Prism 5 software (GraphPad, San Diego, CA, USA). Statistical evaluation (Student’s t-test) for all properties was performed in the Prism 5 software. […]
Flow cytometric analysis was performed using RT4-D12 Schwannoma cells after incubation with either Cy5-P0_101–125 or Cy5-(P0_101–125)2. […] Cells were gated on Forward Scatter and Side Scatter, and a minimum of 10,000 viable cells were analyzed per sample. […]
(§1) For evaluation of the differences in signal intensity per concentration between Cy5-P0_101–125 and Cy5-(P0_101–125)2 (5–1000 nM), the mean signal intensity of Cy5-P0_101–125 at 1000nM was set at 100%, and intensities measured at other tracer concentrations or for Cy5-(P0_101–125)2 were calculated as % increase or decrease from this point. The KD values of the evaluated peptides were calculated using the “Binding-Saturation, One site—Total” nonlinear regression equation, as described previously.

The next data set concerns RT4-D12 Schwannoma cells. Nature of the data set: Flow cytometry quantification of fluorescence signal intensity per tracer concentration. Format: cell-based. On the procedure:
Flow cytometric analysis was performed using RT4-D12 Schwannoma cells after incubation with either Cy5-P0_101–125 or Cy5-(P0_101–125)2. For saturation binding experiments, Cy5-labelled peptides were added to the cell samples in a range of 0–2000 nM in 50 µL of 0.1% bovine serum albumin (BSA) in PBS, as previously described. After 1 h of incubation at 4 °C, the cells were washed two times with 300 µL of 0.1% BSA in PBS and re-suspended in 300 µL of 0.1% BSA. Cells were gated on Forward Scatter and Side Scatter, and a minimum of 10,000 viable cells were analyzed per sample. All experiments were performed in triplicate.
as §1

Another data set relates to serum protein. Nature of the data set: Serum protein binding. Format: in vitro ADME. The following applies: serum; protocol modified from Hensbergen et al. [34]; mean ± spread. On the procedure: (§2) The molar extinction coefficient (ε), quantum yield (QY), brightness, lipophilicity, serum protein binding, photo- and chemical stability, and stacking behavior were determined according to a slight modification of the protocol put forward by Hensbergen et al.. Sulfonate-(SO3)Cy5(SO3)-COOH [27] was measured and used as a control for QY.

Data set [4] is described as follows: Photostability (photobleaching). The following applies: illumination in 5 min cycles, 30 min in total, Storz D-Light P system at 50 mm, fluorescence read-out. The data set is classed as physicochemical. As to the method:
as §2
For photostability measurements, the cuvettes were sealed and illuminated for 5 min (30 min in total) by a modified Storz D-Light P fluorescence imaging system at a distance of 50 mm in a dark environment. After each illumination cycle, the fluorescence intensity was determined.

Starred links: 1 amine or outer side, 2 acyl side, 3 side chain; linkers in the order of their positions; H or OH if unused. Positions of bridges follow the written chain, without caps; N, C: chain ends. Chains are numbered I, II in the order given. X1 = CC1(C)C(/C=C/C=C/C=C2/N(CCCCCC(=O)NCCN3C(=O)CC([*:1])C3=O)c3ccc(S(=O)(=O)O)cc3C2(C)C)=[N+](CCCCCC(=O)NCCN2C(=O)CC([*:2])C2=O)c2ccc(S(=O)(=O)[O-])cc21

Consider “I: Ac-KNPPDIVGKTSQVTLYVFEKVPTRYC-NH2 / II: Ac-KNPPDIVGKTSQVTLYVFEKVPTRYC-NH2 (linker I:26-II:26 via X1) [Cy5-(P0_101–125)2]”, for which the stokes shift was found to be 17 nm. The same substance registered a λEm in H2O/PBS in data set [1] of 671 nm. In data set [2], this substance yielded a λex in H2O/PBS of 654 nm. In data set [3], this substance showed a Brightness in PBS of 49.2 M⁻¹ cm⁻¹. Moreover, the “fold increase in affinity compared to Cy5-P0_101–125” value at myelin protein zero (P0) (from KD values, p = 0.003) is recorded as 1.5 fold. Also, the Nonspecific binding on myelin protein zero (P0) (saturation binding fit, flow cytometry, RT4-D12 cells) amounted to 0.022. At myelin protein zero (P0) (saturation binding, flow cytometry, RT4-D12 Schwannoma cells, 0–2000 nM tracer in 0.1% BSA in PBS, 1 h at 4 °C, triplicate, One site—Total fit), this substance yielded a Kd of 70.3 nM. The “fold increase in staining efficiency compared to Cy5-P0_101–125” value in the data set on RT4-D12 Schwannoma cells (P0 expressing Schwannoma cells, equal staining at 4-fold lower concentration) is given as roughly 4 fold. For the same substance, the “higher fluorescence signal intensity compared to Cy5-P0_101–125 at the same concentration, range” value with RT4-D12 Schwannoma cells (flow cytometry, tracer 5–1000 nM, RT4-D12 cells) is recorded as 34–59%. Also, the “higher fluorescence signal intensity compared to Cy5-P0_101–125 at the same concentration, average” value with RT4-D12 Schwannoma cells (flow cytometry, tracer 5–1000 nM, RT4-D12 cells, p < 0.00001) was 44%. The same substance gave a fraction unbound in the data set with serum protein of 0.37. Also, in data set [4], the “Photobleaching, %” value worked out at 71%.

For the origin of these results see publication PMC9786614, “Nerve Targeting via Myelin Protein Zero and the Impact of Dimerization on Binding Affinity” (Molecules, 2022).
